Test results reported in patent US20200054682A1, “METHODS AND COMPOSITIONS FOR TREATING MITOCHONDRIAL DISEASE OR DISORDERS AND HETEROPLASMY” (Imel Biotherapeutics, Inc., priority 2018, published 2020).
“Also recorded” adds a separate entry of the source.

How the values were obtained:
[1] = tested on: mtDNA; experiment: mtDNA copy number by qPCR, MTS-XbaIR versus EtBr, in EPC100 cells; format: cell-based, human; conditions: qPCR relative to Actb, EtBr 50 ng/mL, untreated cells 6189.6867
Method: The efficiency and efficacy of the MTS-XbaIR expression vector relative to the conventional method that employs ethidium bromide (EtBr) was evaluated according to the scheme illustrated in FIG. 2A. The placental venous endothelium-derived cell line EPC100 with DsRed labeled mitochondria were cultured in pyruvate-free DMEM (Wako cat #044-29765) with 10% fetal bovine serum (FBS) and 1% penicillin/streptomycin (P/S), and at day 0 the cells were either untreated (“normal”), transfected with the MTS-XbaIR expression vector (“MTS-XbaIR”), or treated with 50 ng/mL of EtBr. At day 1, the cells were cultured in DMEM with 10% FBS, and 1% P/S supplemented with 100 μg/mL pyruvate and 50 μg/mL uridine. […] Cells with this partial reduction of mtDNA were termed as ρ(−) cells.

[2] = tested on: NHDF recipient cells; experiment: engulfment of DsRed-labeled exogenous mitochondria by FACS with rapamycin or palmitic acid; format: cell-based, human; conditions: ρ(−) NHDF cells; rapamycin 50 ng/ml, palmitic acid 50 μM; FACS day 8
Method: Rapamycin was added into the culture media at the concentration of 50 ng/ml for 24 hours, and cells were exposed to glucose and essential amino acids free media without serum for 1 hour to simulate starvation. […] The ratio of phosphorylated AMPK to AMPK and phosphorylated p70 S6 kinase to p70 S6 kinase, which is a downstream target of mTORC1, were examined by using capillary electrophoresis, Wes™ (Protein Simple).
Next, we examined the effects of rapamycin and palmitic acid upon mitochondria engulfment by treating the cells with rapamycin or palmitic acid simultaneously during the mitochondria co-cultivation. A scheme of the protocol is illustrated in FIG. 6I. Briefly, the NHDF recipient cells were transfected with the MTS-XbaI expression vector and cultured with or without rapamycin, or with or without palmitic acid (PA). Puromycin selection for ρ(−) cells expressing the MTS-XbaI was performed after 48 hours. On day 6, transfer of isolated mitochondria marked with DsRed from EPC100 cells was performed. On Day8, FACS analyses were performed to detect the donor mitochondria by measuring DsRed expression in the NHDF recipient cells.

CC[n+]1c(-c2ccccc2)c2cc(N)ccc2c2ccc(N)cc21 [EtBr, ethidium bromide]
mtDNA copy number [1]: 5169.1258

CCCCCCCCCCCCCCCC(=O)O [palmitic acid]
engulfment of DsRed-labeled isolated exogenous mitochondria [2]: decreased; also recorded: clearly suppressed
